Patent publication US20260034107A1, “SUBSTITUTED FUSED IMIDAZOLE DERIVATIVES AND METHODS OF TREATING SICKLE CELL DISEASE AND RELATED COMPLICATIONS” (vTv Therapeutics LLC, priority 2019, published 2026)

Experiments:
[1] = system: KU812 cells; test: KU812 cell counts and viability by 0.4% Trypan blue exclusion; type: cell-based, human; details: 48 hours, 0.5, 2.5, 5.0 and 20 μM, widest range of drug concentrations
Description: (§1) KU812, a human leukemic cell line that expresses the fetal gamma-globin and adult beta-globin genes, was used as a system for screening. […] (See Zein S, Lou R F, Sivanand S, Ramakrishnan V, Mackie A, Li W, Pace BS. KU812 Cell Line: model for identifying fetal hemoglobin inducing drugs. Exp Biol Med (Maywood) 235:1385-94, 2010.) KU812 cells were grown in Iscove's Modified Dulbecco Media (IMDM) and 10% fetal bovine serum until in log phase growth.
KU812 cells in log growth phase were treated with compounds 73, 134, 473 and 236 (See Table A) at a doses of 0.5, 2.5, 5.0 and 20 μM for 48 hours. At harvest, cell counts and viability were measured by 0.4% Trypan blue exclusion.

[2] = system: HbF; test: Western blot analysis of HbF induction in KU812 cells; type: cell-based, human; details: for increased HbF (Western blot): at concentrations between 0.5 to 5 PM; for HbF induction by Western blot: tested concentrations 0.5-20 μM
Description: (§2) About 20-50 ug of protein is separated by SDS-polyacrylamide gel electrophoresis, and transferred to nitrocellulose membranes. Membranes are blocked in 5% dry milk containing TBS-T for 30 minutes followed by one hour and incubated with HbF or actin antibodies. After several washes, membranes are incubated with 1:10000 diluted HRP-conjugated secondary antibody (Thermo Scientific), developed with ECL Prime reagent (GE Healthcare Biosciences). Images may be captured on a Bio-Rad Chemi-Doc MP Imaging System and protein bands quantified by densitometry.
as §1
Western blot analysis was also conducted to determine level of induction of HbF in KU812 cells by Compounds 73, 134, 473, and 236. Hydroxyurea and hemin were used as positive controls, and ß-actin was used as a protein loading control.

[3] = system: HbF; test: Flow cytometry of KU812 cells for HbF positive cells (F-cells) and MFI; type: cell-based, human; details: flow cytometry, 0.5, 2.5, 5, 10, and 20 μM
Description: (§3) About 5×10^5 cells are harvested after treatment with compound, washed twice with ice cold phosphate buffered saline and resuspended in 4% paraformaldehyde for 40 minutes at 37° C. Fixed cells are permeabilized with ice-cold acetone/methanol (4:1) and washed with phosphate buffered saline followed by incubation with FITC-conjugated anti-HbF antibody (1:1000, Abcam) for 20 minutes. The labeled cells may be analyzed using a Becton Dickerson LSR-II flow cytometer (BD Bioscience, San Jose, CA, USA) and FlowJo v0.9 software.
as §1
Flow cytometry was conducted for KU812 cells following treatment with Compounds 473 and 236 at various concentrations (0.5, 2.5, 5, 10, and 20 μM). […] Compounds 73 and 134 were not analyzed by flow cytometry.

[4] = system: γ-globin; test: γ-globin / HbF expression in sickle erythroid progenitor cells; type: cell-based; details: 48 hours
Description: as §2
About 5×10^5 cells are harvested after treatment with compound, washed twice with ice cold phosphate buffered saline and resuspended in 4% paraformaldehyde for 40 minutes at 37° C. […] The labeled cells may be analyzed using a Becton Dickerson LSR-II flow cytometer (BD Bioscience, San Jose, CA, USA) and FlowJo v0.9 software.
To test compounds under conditions more closely modeling physiological conditions for one with a SCD, sickle erythroid progenitor cells were cultured for 10 days and then treated with Compound 473 for 48 hours at concentrations of 0.5 μM and 2.5 μM. Treated cells were analyzed by western blot for levels of expression of HbF, HbS, and ß-actin relative to cells treated with DMSO, hemin, or HU. […]

[5] = system: HbS; test: Western blot of HbS protein in sickle erythroid progenitor cells; type: cell-based; details: 0.5 μM and 2.5 μM, 48 hours
Description: as §2
(§4) To test compounds under conditions more closely modeling physiological conditions for one with a SCD, sickle erythroid progenitor cells were cultured for 10 days and then treated with Compound 473 for 48 hours at concentrations of 0.5 μM and 2.5 μM. Treated cells were analyzed by western blot for levels of expression of HbF, HbS, and ß-actin relative to cells treated with DMSO, hemin, or HU. The same treated cells were also analyzed by flow cytometry for y-globin gene expression relative to cells treated with DMSO, hemin, or HU.

[6] = system: HbF; test: Flow cytometry of F-cells in sickle erythroid progenitor cells; type: cell-based; details: 0.5 μM and 2.5 μM, 48 hours
Description: as §3, §4

[7] = system: sickle erythroid progenitor cells; test: Anti-sickling activity in sickle erythroid progenitor cells under hypoxia; type: cell-based; details: 0.5 μM and 2.5 μM, 48 hours, hypoxia (1% O2 and 5% CO2)
Description: As described above, sickle erythroid progenitor cells were cultured for 10 days and then treated with Compound 473 for 48 hours at concentrations of 0.5 μM and 2.5 μM or with hemin (about 50 μM) or with HU (about 100 μM). Treated cells were then subjected to hypoxia conditions (1% O2 and 5% CO2).

| SMILES | effects on cell growth rates [1] | increased HbF (Western blot) [2] | HbF induction by Western blot [2] | mean fluorescence intensity (MFI) [3] | number of HbF positive cells (F-cells) [3] | γ-globin gene expression induction ([4]; 0.5 μM) [fold] | γ-globin gene expression induction ([4]; 2.5 μM) [fold] | HbS protein levels [5] | F-cell levels by flow cytometry [6] | percent of sickled cells compared to DMSO control [7] |
| --- | --- | --- | --- | --- | --- | --- | --- | --- | --- | --- |
| Cn1c(Nc2nc3ccc(C(F)(F)F)cc3s2)nc2cc(C(=O)NCCOCCO)cnc21 [Compound 473, N-[2-(2-Hydroxyethoxy)ethyl]-3-methyl-2-[[6-(trifluoromethyl)-1,3-benzothiazol-2-yl]amino]imidazo[4,5-b]pyridine-6-carboxamide] | minimal effects | increased HbF | showed HbF induction | increased mean fluorescence intensity | increase in the number of HbF positive cells | 1.6 | 1.9 | without affecting HbS protein levels | Increased F-cell levels | significantly decreased the percent of sickled cells |
| Cn1c(Nc2nc3ccc(C(F)(F)F)cc3s2)nc2cc(C(=O)NCCOCCO)ccc21 [Compound 236, 1-Methyl-2-(6-trifluoromethyl-benzothiazol-2-ylamino)-1H-benzoimidazole-5-carboxylic acid [2-(2-hydroxy-ethoxy)-ethyl]-amide] | – | – | did not show significant induction of HbF | some increase in MFI | did not significantly increase F-cells | – | – | – | – | – |
| CN(C)C(=O)CNC(=O)c1ccc2c(c1)nc(Nc1nc3ccc(C(F)(F)F)cc3s1)n2C [Compound 134, 1-Methyl-2-(6-trifluoromethyl-benzothiazol-2-ylamino)-1H-benzimidazole-5-carboxylic acid dimethylcarbamoylmethyl-amide] | minimal effects | increased HbF | showed HbF induction | – | – | – | – | – | – | – |
| COCCNC(=O)c1cnc2c(c1)nc(Nc1nc3ccc(OC(F)(F)F)cc3s1)n2C [Compound 73, 3-Methyl-2-(6-trifluoromethoxy-benzothiazol-2-ylamino)-3H-imidazo[4,5-b]pyridine-6-carboxylic acid (2-methoxy-ethyl)-amide] | – | – | showed HbF induction | – | – | – | – | – | – | – |
